# Measurements published in PubChem BioAssay AID248 (DTP/NCI, 2004).
# Toxic doses and inconclusive results are not listed. Square brackets hold non-standard residues; d marks the D form. Peptide text beside a SMILES is read from it. * marks the point of attachment. Arg(NO2) = N=C(NCCC[CH](N)C(=O)O)N[N+](=O)[O-]; Cbz = O=C(OCc1ccccc1)*
# System: L1210 leukemia ip in BDF1 mice, survival T/C
# Test: NCI In Vivo Anticancer Drug Screen. Data for tumor model L1210 Leukemia (intraperitoneal) in B6D2F1 (BDF1) mice
# Details: endpoint: mean survival time, higher = longer survival
# In short: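 Survival endpoint. Drug-treated group vs vehicle group, expressed as T divided by C. Tumor passaged by transplantation.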
# [1] = dose: 100.0 mg/kg/injection, schedule: Q04DX003 (ip), vehicle: saline
# [2] = dose: 200.0 mg/kg/injection, schedule: Q04DX003 (ip), vehicle: saline
# [3] = dose: 400.0 mg/kg/injection, schedule: Q04DX003 (ip), vehicle: saline
# [4] = dose: 100.0 mg/kg/injection, schedule: Q01DX001 (ip), vehicle: saline
# [5] = dose: 200.0 mg/kg/injection, schedule: Q01DX001 (ip), vehicle: saline
# [6] = dose: 400.0 mg/kg/injection, schedule: Q01DX001 (ip), vehicle: saline
# [7] = dose: 50.0 mg/kg/injection, schedule: Q01DX009 (ip), vehicle: Klucel (hydroxypropylcellulose) (HPC)
# [8] = dose: 100.0 mg/kg/injection, schedule: Q01DX009 (ip), vehicle: Klucel (hydroxypropylcellulose) (HPC)
structure (smiles),measurement,setting,value
N/C=N/O,T/C,"dose: 12.5 mg/kg/injection, schedule: Q01DX009 (ip), vehicle: saline",105 % of control
same,T/C,"dose: 25.0 mg/kg/injection, schedule: Q01DX009 (ip), vehicle: saline",105 % of control
same,T/C,"dose: 50.0 mg/kg/injection, schedule: Q01DX009 (ip), vehicle: saline",111 % of control
same,T/C,"dose: 100.0 mg/kg/injection, schedule: Q01DX009 (ip), vehicle: saline",111 % of control
same,T/C,[1],101 % of control
same,T/C,"dose: 200.0 mg/kg/injection, schedule: Q01DX009 (ip), vehicle: saline",121 % of control
same,T/C,[2],111 % of control
same,T/C,"dose: 400.0 mg/kg/injection, schedule: Q01DX009 (ip), vehicle: saline",158 % of control
same,T/C,[3],97 % of control
COC(=O)C(CCCN=C(N)N[N+](=O)[O-])NC(=O)C(Cc1ccccc1)NC(=O)C1CCCN1C(=O)OCc1ccccc1 (stereo not drawn) (Cbz-Pro-Phe-[Arg(NO2)]-OMe; configuration not given here),T/C,[4],90 % of control
same,T/C,[5],96 % of control
same,T/C,[6],92 % of control
Cc1c(C(C)(C)c2ccccc2)n(C)c2ccc(C(C)(C)c3ccccc3)cc12,T/C,"dose: 50.0 mg/kg/injection, schedule: Q01DX001 (ip), vehicle: other",91 % of control
same,T/C,"dose: 100.0 mg/kg/injection, schedule: Q01DX001 (ip), vehicle: other",91 % of control
same,T/C,"dose: 200.0 mg/kg/injection, schedule: Q01DX001 (ip), vehicle: other",96 % of control
same,T/C,"dose: 400.0 mg/kg/injection, schedule: Q01DX001 (ip), vehicle: other",93 % of control
O=c1[nH]c2cnccc2c(=O)n1O,T/C,"dose: 100.0 mg/kg/injection, schedule: Q01DX009 (ip), vehicle: saline with Tween-80",102 % of control
same,T/C,"dose: 200.0 mg/kg/injection, schedule: Q01DX009 (ip), vehicle: saline with Tween-80",93 % of control
same,T/C,"dose: 400.0 mg/kg/injection, schedule: Q01DX009 (ip), vehicle: saline with Tween-80",104 % of control
CC(C)C(CN)(CCCN1CCCCC1)c1cccc2ccccc12 (stereo unspecified),T/C,"dose: 100.0 mg/kg/injection, schedule: Q04DX003 (ip), vehicle: saline with Tween-80",101 % of control
O=C(O)c1ccc(N=Nc2nc3[nH]c(=O)[nH]c(=O)c3[nH]2)cc1,T/C,[7],97 % of control
same,T/C,[8],97 % of control
same,T/C,"dose: 200.0 mg/kg/injection, schedule: Q01DX009 (ip), vehicle: Klucel (hydroxypropylcellulose) (HPC)",87 % of control
Oc1ccc2ccccc2c1N=Nc1nccs1,T/C,"dose: 12.5 mg/kg/injection, schedule: Q01DX009 (ip), vehicle: Klucel (hydroxypropylcellulose) (HPC)",96 % of control
same,T/C,"dose: 25.0 mg/kg/injection, schedule: Q01DX009 (ip), vehicle: Klucel (hydroxypropylcellulose) (HPC)",95 % of control
same,T/C,[7],101 % of control
same,T/C,"dose: 100.0 mg/kg/injection, schedule: Q01DX001 (ip), vehicle: Klucel (hydroxypropylcellulose) (HPC)",94 % of control
same,T/C,"dose: 100.0 mg/kg/injection, schedule: Q04DX003 (ip), vehicle: Klucel (hydroxypropylcellulose) (HPC)",100 % of control
same,T/C,"dose: 200.0 mg/kg/injection, schedule: Q01DX001 (ip), vehicle: Klucel (hydroxypropylcellulose) (HPC)",101 % of control
same,T/C,"dose: 200.0 mg/kg/injection, schedule: Q04DX003 (ip), vehicle: Klucel (hydroxypropylcellulose) (HPC)",96 % of control
same,T/C,"dose: 400.0 mg/kg/injection, schedule: Q01DX001 (ip), vehicle: Klucel (hydroxypropylcellulose) (HPC)",98 % of control
same,T/C,"dose: 400.0 mg/kg/injection, schedule: Q04DX003 (ip), vehicle: Klucel (hydroxypropylcellulose) (HPC)",94 % of control
CC(=O)c1ccc(O)c(CN(C2CCCCC2)C2CCCCC2)c1O,T/C,[4],100 % of control
same,T/C,[5],93 % of control
same,T/C,[6],93 % of control
CSc1ccc(NC(=O)Nc2c(C)cc(C)cc2C)cc1,T/C,"dose: 25.0 mg/kg/injection, schedule: Q01DX009 (ip), vehicle: other",92 % of control
same,T/C,"dose: 50.0 mg/kg/injection, schedule: Q01DX009 (ip), vehicle: other",93 % of control
same,T/C,"dose: 100.0 mg/kg/injection, schedule: Q01DX009 (ip), vehicle: other",102 % of control
CC1CCCC(C)(C)C1NCc1cc(Br)cc(Br)c1O (stereo unspecified),T/C,[8],107 % of control
same,T/C,"dose: 400.0 mg/kg/injection, schedule: Q01DX009 (ip), vehicle: Klucel (hydroxypropylcellulose) (HPC)",88 % of control
CCCOc1ccc(=S)[nH]n1,T/C,[4],103 % of control
same,T/C,[1],101 % of control
same,T/C,[5],95 % of control
same,T/C,[2],106 % of control
same,T/C,[6],98 % of control
same,T/C,[3],95 % of control
